This assay has as its target T1, BRM (Homo sapiens, UniProt P51531).
T1 construct: In-Cell Western Screen of BRM Degradation in SW1573 Cells; endogenous in cells; host or cells: SW1573
As to the kind of experiment: In-cell Western screen of BRM degradation in SW1573 cells (Dmax and DC50). The assay is classed as cell-based. Particulars: BRM degradation, SW1573 cells, Table 2D; for Dmax: read-out: **Dmax (%) (% degraded); for DC50: read-out: *DC50. Summed up:
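SW1573 cells were treated overnight (18-20 hours) with compound at 0.1% final DMSO. They were then PFA-fixed, permeabilised with Triton X-100 and immunostained with 800 nm/680 nm secondary antibodies. BRM signal was quantified by LI-COR in-cell Western imaging to derive Dmax and DC50.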

By Dmax is commonly meant the greatest extent of degradation seen. The term DC50 denotes the concentration at which degradation of the target reaches its halfway point.

T1 sequence (P51531 whole entry): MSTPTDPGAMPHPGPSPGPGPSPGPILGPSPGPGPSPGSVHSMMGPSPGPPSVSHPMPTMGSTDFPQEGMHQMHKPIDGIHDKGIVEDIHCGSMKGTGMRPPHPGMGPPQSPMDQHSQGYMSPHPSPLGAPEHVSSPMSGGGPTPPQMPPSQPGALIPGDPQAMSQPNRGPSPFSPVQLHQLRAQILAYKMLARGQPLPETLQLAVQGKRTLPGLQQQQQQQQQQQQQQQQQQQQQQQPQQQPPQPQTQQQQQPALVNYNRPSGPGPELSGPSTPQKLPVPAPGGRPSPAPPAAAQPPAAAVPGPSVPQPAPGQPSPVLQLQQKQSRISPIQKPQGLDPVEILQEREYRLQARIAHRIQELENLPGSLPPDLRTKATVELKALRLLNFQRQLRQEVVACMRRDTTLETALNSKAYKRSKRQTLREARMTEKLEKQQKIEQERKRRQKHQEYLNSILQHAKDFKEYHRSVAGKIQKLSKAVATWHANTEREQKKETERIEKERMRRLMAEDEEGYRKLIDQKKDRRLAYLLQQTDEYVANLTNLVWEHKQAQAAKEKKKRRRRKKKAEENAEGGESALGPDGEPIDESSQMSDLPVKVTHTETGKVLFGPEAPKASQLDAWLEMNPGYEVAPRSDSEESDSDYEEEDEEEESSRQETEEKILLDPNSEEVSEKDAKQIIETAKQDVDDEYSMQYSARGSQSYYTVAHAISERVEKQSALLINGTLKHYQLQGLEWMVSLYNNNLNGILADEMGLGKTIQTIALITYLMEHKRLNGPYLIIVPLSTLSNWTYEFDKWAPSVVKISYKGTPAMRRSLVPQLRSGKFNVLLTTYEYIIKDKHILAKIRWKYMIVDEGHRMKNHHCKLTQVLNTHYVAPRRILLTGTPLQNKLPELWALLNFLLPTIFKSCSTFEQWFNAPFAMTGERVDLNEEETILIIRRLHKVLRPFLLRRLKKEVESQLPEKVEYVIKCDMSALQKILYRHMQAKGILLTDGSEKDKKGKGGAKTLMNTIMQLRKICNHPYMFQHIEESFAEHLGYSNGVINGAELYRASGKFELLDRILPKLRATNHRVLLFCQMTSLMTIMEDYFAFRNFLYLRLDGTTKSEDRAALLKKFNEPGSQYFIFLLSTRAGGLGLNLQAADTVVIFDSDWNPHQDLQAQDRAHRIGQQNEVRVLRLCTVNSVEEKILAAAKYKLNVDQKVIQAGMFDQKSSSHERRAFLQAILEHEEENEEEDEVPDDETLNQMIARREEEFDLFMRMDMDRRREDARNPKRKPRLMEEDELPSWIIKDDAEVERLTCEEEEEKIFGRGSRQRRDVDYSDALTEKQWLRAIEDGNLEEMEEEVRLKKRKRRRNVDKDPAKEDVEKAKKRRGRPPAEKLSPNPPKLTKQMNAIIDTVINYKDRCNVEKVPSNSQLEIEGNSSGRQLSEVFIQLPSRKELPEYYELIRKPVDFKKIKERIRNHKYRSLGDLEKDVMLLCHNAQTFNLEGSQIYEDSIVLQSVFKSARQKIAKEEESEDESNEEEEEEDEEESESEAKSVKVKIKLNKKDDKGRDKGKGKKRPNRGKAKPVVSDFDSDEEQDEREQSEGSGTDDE

With `Cc1ncsc1-c1ccc([C@H](C)NC(=O)[C@@H]2C[C@@H](O)CN2C(=O)[C@@H](c2cc(OCCN3CCC(CCOc4cc(N5C6CCC5CN(c5cc(-c7ccccc7O)nnc5N)C6)ccn4)CC3)no2)C(C)C)cc1` [compound 554, (2S,4R)-1-((2R)-2-(3-(2-(4-(2-((4-(3-(3-amino-6-(2-hydroxyphenyl)pyridazin-4-yl)-3,8-diazabicyclo[3.2.1]octan-8-yl)pyridin-2-yl)oxy)ethyl)piperidin-1-yl)ethoxy)isoxazol-5-yl)-3-methylbutanoyl)-4-hydroxy-N-((S)-1-(4-(4-methylthiazol-5-yl)phenyl)ethyl)pyrrolidine-2-carboxamide], the maximal degradation (Dmax) was > 75% and the DC50 is < 2.5 nM.
On to `Cc1ncsc1-c1ccc([C@H](CCCC(N)=O)NC(=O)[C@@H]2C[C@@H](O)CN2C(=O)[C@H](c2cc(OCCN3CCC(O[C@H]4C[C@H](Oc5cc(N6C7CCC6CN(c6cc(-c8ccccc8O)nnc6N)C7)ccn5)C4)CC3)no2)C(C)C)cc1` [compound 555, (2S,4R)-N-((S)-5-amino-1-(4-(4-methylthiazol-5-yl)phenyl)-5-oxopentyl)-1-((2S)-2-(3-(2-(4-((1r,3S)-3-((4-(3-(3-amino-6-(2-hydroxyphenyl)pyridazin-4-yl)-3,8-diazabicyclo[3.2.1]octan-8-yl)pyridin-2-yl)oxy)cyclobutoxy)piperidin-1-yl)ethoxy)isoxazol-5-yl)-3-methylbutanoyl)-4-hydroxypyrrolidine-2-carboxamide], for which the DC50 was > 30 nM.
On to `Cc1ncsc1-c1ccc([C@H](CCCC(N)=O)NC(=O)[C@@H]2C[C@@H](O)CN2C(=O)[C@@H](c2cc(OCCN3CCC(O[C@H]4C[C@H](Oc5cc(N6C7CCC6CN(c6cc(-c8ccccc8O)nnc6N)C7)ccn5)C4)CC3)no2)C(C)C)cc1` [compound 556, (2S,4R)-N-((S)-5-amino-1-(4-(4-methylthiazol-5-yl)phenyl)-5-oxopentyl)-1-((2R)-2-(3-(2-(4-((1r,3R)-3-((4-(3-(3-amino-6-(2-hydroxyphenyl)pyridazin-4-yl)-3,8-diazabicyclo[3.2.1]octan-8-yl)pyridin-2-yl)oxy)cyclobutoxy)piperidin-1-yl)ethoxy)isoxazol-5-yl)-3-methylbutanoyl)-4-hydroxypyrrolidine-2-carboxamide], for which the Dmax is > 75% and the DC50 is < 2.5 nM.
Take `Cc1cc([C@@H](C(=O)N2C[C@H](O)C[C@H]2C(=O)N[C@@H](C)c2ccc(-c3scnc3C)cc2)[C@H](C)COCCCCn2cc(-c3cc(-c4ccccc4O)nnc3N)cn2)on1` [compound 557, (2S,4R)-1-((2S,3S)-4-(4-(4-(3-amino-6-(2-hydroxyphenyl)pyridazin-4-yl)-1H-pyrazol-1-yl)butoxy)-3-methyl-2-(3-methylisoxazol-5-yl)butanoyl)-4-hydroxy-N-((S)-1-(4-(4-methylthiazol-5-yl)phenyl)ethyl) pyrrolidine-2-carboxamide]: the DC50 was > 30 nM.
`Cc1cc([C@H](C(=O)N2C[C@H](O)C[C@H]2C(=O)N[C@@H](C)c2ccc(-c3scnc3C)cc2)[C@H](C)COCCCCn2cc(-c3cc(-c4ccccc4O)nnc3N)cn2)on1` [compound 558, (2S,4R)-1-((2R,3S)-4-(4-(4-(3-amino-6-(2-hydroxyphenyl)pyridazin-4-yl)-1H-pyrazol-1-yl)butoxy)-3-methyl-2-(3-methylisoxazol-5-yl)butanoyl)-4-hydroxy-N-((S)-1-(4-(4-methylthiazol-5-yl)phenyl)ethyl) pyrrolidine-2-carboxamide]: the DC50 was > 30 nM.
Regarding `Cc1cc([C@@H](C(=O)N2C[C@H](O)C[C@H]2C(=O)N[C@@H](C)c2ccc(-c3scnc3C)cc2)[C@H](C)COCCCn2cc(-c3cc(-c4ccccc4O)nnc3N)cn2)on1` [compound 559, (2S,4R)-1-((2S,3S)-4-(3-(4-(3-amino-6-(2-hydroxyphenyl)pyridazin-4-yl)-1H-pyrazol-1-yl)propoxy)-3-methyl-2-(3-methylisoxazol-5-yl)butanoyl)-4-hydroxy-N-((S)-1-(4-(4-methylthiazol-5-yl)phenyl)ethyl)pyrrolidine-2-carboxamide], the DC50 is > 30 nM.

Source of the values: patent US12539292B2, “BRM targeting compounds and associated methods of use” (Arvinas Operations, Inc., priority 2018, dated 2026).
